≈ marks a conversion by molar mass, not a printed value.
How the values were obtained:
RKO-E6 cells = assay: Alamar Blue viability assay, RKO-E6; type: cell-based, human; conditions: for effect on doxorubicin's lethality in RKO-E6 cells: co-treatment with 0.5 μg/ml doxorubicin
Experimental: RKO colon carcinoma, human (ATCC, order # CRL-2577), RKO-E6 colon carcinoma transfected with HPV E6 inserted in pCMV.3 (ATCC, order # CRL-2578) were grown in MEM with 2 mM L-glutamine and Earle's BBS adjusted to contain 1.5 g/L NaHCO3, 0.1 mM non-essential amino acids and 1.0 mM sodium pyruvate, and supplemented with 10% fetal bovine serum, penicillin and streptomycin (pen/strep). Both cell lines were incubated at 37° C. in a humidified incubator containing 5% CO2.
The Alamar Blue assay incorporates a fluorimetric/colorimetric growth indicator that changes color in the response to chemical reduction by viable cells (Nociari 1998). Cells were seeded at a density of 3,000 cells (57 μl) per well in a 384-well black, clear-bottom plates using a syringe bulk dispenser (Zymark Sciclone ALH). Three microliters were removed from a compound daughter plate using a 384 fixed cannula head and added to the assay plate, making the final concentration 4 μg/ml. The plates were incubated for 24 h at 37° C. 10 μl of 40% Alamar Blue (Biosource Int., cat #DAL1100) solution in media was added to each well (1:10 dilution). The assay plates were incubated for 16h. Fluorescence intensity was determined using a Packard Fusion platereader with a 535 nm excitation filter and a 590 nm emission filter. The average fluorescence for the whole plate was used as a positive control. Average percentage inhibition for each well was determined using our freely available SLIMS software (Kelley et al., 2004).
The daughter plates for the 2-fold dilution series were prepared with a Zymark Sciclone ALH by diluting the replica daughter plates to obtain compound concentrations from 8 μg/ml-0.008 μg/ml (columns 8-18). Columns 1-7 were used as untreated control. RKO-E6 cells were seeded at the density of 3,000 per well in 55 μl, and 5 μl were added from the daughter plate. RKO cells were seeded at the density of 2,000 per well in 55 μl, and 5 μl were added from the daughter plate. The assay was incubated for 24 h at 37° C. 10% Alamar Blue was added to each well and the assay was incubated for 16 h (see above). Compounds for retesting were purchased from the manufacturers or from Sigma-Aldrich (see above). Stocks were prepared in DMSO at 4 mg/ml.
Each cell line (RKO, RKO-E6, HeLa and TC32) was treated with a dose combination matrix of doxorubicin and a selected hit compound. Each treatment was done in a triplicate in 384-well format. The average percent inhibition of cell proliferation, measured with Alamar Blue, was determined using the following formula: […]

[1] = Rescue and toxicity of Compound 164 and analogs (Table 4); conditions: for TC50: Table 4, toxicity; for Max % Toxicity / Max % Rescue: Table 4, cell model not stated
p53 = assay: Western blot of p53 (p21, MDM2) levels; type: cell-based, human; conditions: RKO-E6 cells; in words
Experimental: Protein content was quantified using a BioRad protein assay reagent (BioRad, cat #500-0006). Equal amounts of protein were resolved on SDS-polyacrylamide gels. Proteins were transferred onto a PVDF membrane, blocked with 5% milk, and incubated with the appropriate primary and secondary antibodies. […] To test for equivalent loading in each lane, blots were stripped, blocked and probed with an anti-eIF-4E antibody.

N548 mutant cells = assay: cells; conditions: Rattus norvegicus; for maximal fold induction: 72 h, read-out: N548 Mut: Max, maximum rescue expressed as fold over DMSO treated N548 mutant cells; for EC50: read-out: EC50 based on activity in N548 mutant cells
Experimental: Embryonic rat striatal neurons were conditionally immortalized by stably transfecting a temperature-sensitive SV40 large T-antigen (T-ag) to generate the ST14A cell line. ST14A cells proliferate at the permissive temperature (33° C.), but stop dividing at 39° C., as a result of T-ag degradation. […] As htt protein context modulates polyQ toxicity, testing these different length htt proteins could provide insight into the basis for context dependence.
ST14A Assay System: Calcein acetoxylmethyl ester (AM) (Molecular Probes, Eugene, Oreg.) is a non-fluorescent, membrane-permeable compound that is cleaved by intracellular esterases, which subsequently forms the anionic, fluorescent compound, calcein, that cannot permeate the cell membrane. […] A fluorescence viability assay, that is based on conversion of a non-fluorescent substrate (calcein AM) to a fluorescent product by nonspecific esterases in live cells, was employed to monitor cell death in wild type (wt) ST14A-Htt and mut ST14A-Htt cell lines. Cell death is indicated by a decrease in fluorescence. […] 3 μl of each compound was transferred from daughter plates to triplicate assay plates for a final assay concentration of 4 μg/ml in 0.1% DMSO (10 μM for NINDS compounds). Cells were incubated at 33° C. for 3 h to enhance attachment and then shifted to 39° C. (with 5% CO2). After 3 days (d), cells were washed 10 times with phosphate buffered saline (PBS) leaving 20 μl residual PBS per well, and 20 μl of 2 μg/ml calcein AM (Molecular probes) in PBS was added per well. […] The fluorescence intensity in each well was normalized to the median of each plate. The median normalized fluorescence of each triplicate assay wells was determined. A well with more than 50% increase in intensity above the median signal intensity was considered a “hit.”
Assay Development: An assay was developed for detecting mutant htt-induced cell death in ST14A cells in a 384-well plate format. A calcein AM-based method was used to detect cell viability, and optimized the cell number and time course for this method. […] A cell number titration was performed to determine the cell density at which calcein fluorescence was not saturated and the coefficient of variation (CV) was low (FIG. 14A-B). A low CV is critical for a high-throughput assay as it decreases noise and enhances sensitivity. […] Next, the kinetics of the fluorescence signal were determined.
Next, the serum concentrations that induce cell death in these cells were determined. Cells were seeded in decreasing serum (IFS) concentrations (5 to 0%), and cell viability was assayed after 3 d using the calcein AM assay (FIG. 14E).
A Z′ value of greater than 0 is required for a usable assay, with a maximum value of 1.0 for an ideal assay. For the assay, calcein fluorescence was used on the day of seeding to represent 100% rescue. The difference in calcein fluorescence signal on the day of seeding and after different number of days under serum deprivation was determined and used to calculate the Z′ factor. […] About 47,000 compounds were assayed in a 384-well plate format in triplicate to enhance the reliability of the primary screen.

[2] = system: PC12 expressing Q103 exon 1 htt; assay: PC12 HD model, Alamar Blue viability; type: cell-based; conditions: for EC50: Rattus norvegicus, PC-12, unit inferred; for PC12 rescue: percent increase in viability in compound treated cells above DMSO treated: — = no activity in the assay (footnote n.a.)
Experimental: For enhanced stability the repeat portion consists of alternating CAG/CAA repeats. […] Mutant (mut) htt was induced by the ecdysone receptor agonist, tebufenozide.
For the PC12 assay, 7500 cells/well were plated in 384-well plates in 57 μl of PC12 medium with tebufenozide (1 μM). Compounds (3 μl) from daughter plates were added to the cells and incubated at 37° C. After 48 h, 20 μl of 40% Alamar Blue (Biosource, CA) in PC12 media was added per well and cells incubated for 12 h at 37° C. […] Fluorescence intensity was determined using a Packard Fusion plate reader with an excitation filter centered on 535 nm and an emission filter centered on 590 nm. Average percentage inhibition at each concentration was calculated.

CCCCCC(O)C=CC1CCC(=O)C1CCCCCCC(=O)O (stereo not shown) [11-deoxyprostaglandin E1]
effect on doxorubicin's lethality in RKO-E6 cells (RKO-E6 cells; 24 h, in words): showed no activity

COc1ccccc1C1(CCN(Cc2ccccc2)C(=O)c2ccco2)CCOC(C)(C)C1 (stereo not shown) [Compound 164-10, 2-Furancarboxamide, N-(phenylmethyl)-N-[2-[tetrahydro-4-(2-methoxyphenyl)-2,2-dimethyl-2H-pyran-4-yl]ethyl]-(9CI)]
EC50 [1]: 0.2 µM
TC50 [1]: 1.7 µM
Max % Toxicity [1]: 62.27%

COc1ccc(C2c3cc(OC)c(OC)cc3CCN2C(=O)c2ccco2)cc1OC (stereo not shown) [Compound 164-11, Isoquinoline, 1-(3,4-dimethoxyphenyl)-2-(2-furanylcarbonyl)-1,2,3,4-tetrahydro-6,7-dimethoxy-(9CI)]
Max % Rescue [1]: 7.95%

CC(=O)N(CCC1(c2ccc(C)cc2)CCOC(C(C)C)C1)Cc1ccco1 (stereo not shown) [Compound 164-12, N-(2-furylmethyl)-N-{2-[2-isopropyl-4-(4-methylphenyl)tetrahydro-2H-pyran-4-yl]ethyl}acetamide]
TC50 [1]: 8 µM
Max % Toxicity [1]: 60.37%

CC(c1ccccc1)N(CCC(c1ccccc1)C1CCOC(C)(C)C1)C(=O)c1ccco1 (stereo not shown) [Compound 164-13, N-[3-(2,2-dimethyltetrahydro-2H-pyran-4-yl)-3-phenylpropyl]-N-(1-phenylethyl)-2-furamide]
TC50 [1]: 4 µM
Max % Toxicity [1]: 55.74%

COc1ccc(CN(CCC(c2ccc(OC)cc2)C2CCOC(C)(C)C2)C(=O)c2ccco2)cc1 (stereo not shown) [Compound 164-14, N-[3-(2,2-dimethyltetrahydro-2H-pyran-4-yl)-3-(4-methoxyphenyl)propyl]-N-(4-methoxybenzyl)-2-furamide]
EC50 [1]: 0.2 µM
TC50 [1]: 2 µM
Max % Toxicity [1]: 53.80%

CCC(=O)N(CCC1(c2ccc(F)cc2)CCOC(C)(C)C1)Cc1ccc(OC)c(OC)c1 (stereo not shown) [Compound 164-15, Propanamide, N-[(3,4-dimethoxyphenyl)methyl]-N-[2-[4-(4-fluorophenyl)tetraydro-2,2-dimethyl-2H-pyran-4-yl}ethyl]-(9CI)]
Max % Rescue [1]: 48.92%

CC1(C)CC(CCN(Cc2ccccc2)C(=O)c2ccco2)(c2ccccc2)CCO1 (stereo not shown) [Compound 164-16, 2-Furancarboxamide, N-(phenylmethyl)-N-[2-(tetrahydro-2,2-dimethyl-4-phenyl-2H-pyran-4-yl)ethyl]-(9CI)]
CC50 [1]: 8 µM
EC50 [1]: 0.2 µM
Max % Toxicity [1]: 53.14%

O=C(c1ccco1)N1CCN(Cc2ccc3c(c2)OCO3)CC1 [Compound 164-17, 1-(1,3-benzodioxol-5-ylmethyl)-4-(2-furoyl)piperazine]
Max % Toxicity [1]: 31.31%

COc1cccc(CN2CCN(C(=O)c3ccco3)CC2)c1 [Compound 164-18, 1-(2-furoyl)-4-(3-methoxybenzyl)piperazine]
Max % Toxicity [1]: 12.00%

COc1ccc(CN2CCN(C(=O)c3ccco3)CC2)cc1OC [Compound 164-19, 1-(3,4-dimethoxybenzyl)-4-(2-furoyl)piperazine]
EC50 [1]: 18.9 µM
Max % Toxicity [1]: 27.77%

COc1ccc(CN(CCC2(c3ccccc3)CCOC(C)(C)C2)C(=O)c2ccco2)cc1OC (stereo not shown) [Compound 164]
EC50 [1]: 10 µM
Max % Toxicity [1]: 1.27%

CC[C@@]1(O)C(=O)OCc2c1cc1n(c2=O)Cc2cc3ccccc3nc2-1 [camptothecin, S-(+)-camptothecin]
p53, p21, MDM2 levels (p53): caused p53 to accumulate
inhibition at 0.5 µg/mL (RKO-E6 cells; Homo sapiens, RKOE6, 0.5 μg/ml alone, 24 h, read-out: growth inhibition by drug alone): 20%

CCCCCCCCCCCCCCCC[N+](C)(C)C.[Br-] [cetrimonium bromide, cetyltrimethylammonium bromide]
effect on doxorubicin's lethality in RKO-E6 cells (RKO-E6 cells; 24 h, in words): selectively increased doxorubicin's lethality
effect on camptothecin's lethality (RKO-E6 cells; co-treatment with camptothecin, in words): did not synergize with camptothecin

O[C@H]1[C@H]2c3cc4c(cc3CN3CC[C@H](C[C@@H]1O)[C@H]23)OCO4 [dihydrolycorine]
effect on doxorubicin's lethality in RKO-E6 cells (RKO-E6 cells; 24 h, in words): potentiated doxorubicin's lethality

CC[C@H]1CN2CCc3cc(OC)c(OC)cc3[C@@H]2C[C@@H]1C[C@H]1NCCc2cc(OC)c(OC)cc21 [emetine]
effect on doxorubicin's lethality in RKO-E6 cells (RKO-E6 cells; 24 h, in words): potentiated doxorubicin's lethality

NC(=O)NO [hydroxyurea]
effect on doxorubicin's lethality in RKO-E6 cells (RKO-E6 cells; 24 h, in words): only modest upregulation of doxorubicin's lethality

NNc1nnc(-c2ccccc2)c2ccccc12 [revertin-7]
maximal fold induction (N548 mutant cells): 2
EC50 (N548 mutant cells): 1 mg/L (≈ 4.23 µM)
EC50 [2]: 2 mg/L (≈ 8.46 µM)
PC12 rescue: percent increase in viability in compound treated cells above DMSO treated [2]: 18%

CCCc1ccc(CC2=C(O)C(=O)c3ccccc3C2=O)cc1 [revertin-8]
maximal fold induction (N548 mutant cells): 3
EC50 (N548 mutant cells): 2 mg/L (≈ 6.53 µM)
EC50 [2]: 2 mg/L (≈ 6.53 µM)
PC12 rescue: percent increase in viability in compound treated cells above DMSO treated [2]: 15%

CCCCCCCCC(=O)N(Cc1ccco1)C(C)c1nc2ccccc2c(=O)n1-c1cc(C)ccc1C (stereo not shown) [revertin-9]
maximal fold induction (N548 mutant cells): 2
EC50 (N548 mutant cells): 1 mg/L (≈ 1.95 µM)
EC50 [2]: 25 mg/L (≈ 48.7 µM)
PC12 rescue: percent increase in viability in compound treated cells above DMSO treated [2]: 25%

CCCCc1ccc(C(=O)N(CCC(=O)N2CCC(Cc3ccccc3)CC2)Cc2ccco2)cc1 [revertin-11]
maximal fold induction (N548 mutant cells): 2.5
EC50 (N548 mutant cells): 2 mg/L (≈ 4.11 µM)
EC50 [2]: 30 mg/L (≈ 61.6 µM)
PC12 rescue: percent increase in viability in compound treated cells above DMSO treated [2]: 27%

Propanamide, N-[(3,4-dimethoxyphenyl)methyl]-N-[2-(tetrahydro-2,2-dimethyl-4-phenyl-2H-pyran-4-yl)ethyl]-(9CI) [Compound 164-8]
Max % Rescue [1]: 51.48%
